Measurements from US20080057113A1, “Pharmaceutical Anti-Herpetic Composition, Method for Producing a Dosage Form Based Thereon and Method for the Use Thereof” (priority 2003, published 2008).

System: herpetic infection
Assay: Effectiveness of treating herpetic infection upon incorporation of isoleucine
Format: in vivo
Details: isoleucine incorporated into the composition
Protocol: The effectiveness of treating herpetic infection increases to a considerable extent upon incorporation of isoleucine into the composition, by 10-28% as compared to control. Isoleucine may be contained in the formulation of the preparation in an amount of 0.11-0.22 g per 100 ml of composition.

`CC[C@H](C)[C@H](N)C(=O)O` [isoleucine] was tested, and the “Increase of effectiveness of treating herpetic infection as compared to control” value was 10-28%.
